Where two headings read alike, the source gives them in different places.
Tests used:
[1] = tested on: transgenic mice co-expressing VGAT with Channelrhodopsin-2; experiment: SI theta power (LFP) after intradermal capsaicin in VGAT-ChR2 mice; format: in vivo, mouse; details: 15-20 minutes after intradermal injection of capsaicin in the hindpaw, n=5 mice
Source text: Thalamic bursts are triggered predominantly by GABAergic drive from the reticular thalamic nucleus (TRN), a thin layer overlaying the thalamus that receives strong input from limbic cortical areas. To selectively induce thalamic bursts, TRNs were optically stimulated in awake, unrestrained transgenic mice co-expressing the vesicular GABA transporter (VGAT) with Channelrhodopsin-2 (ChR2). In these mice, ChR2 expression in the thalamus is restricted to the TRN. Age-matched wild-type (C57 Bl\6J) non-ChR2 expressing mice were also used to control for non-specific optical stimulation effects. The naïve state refers to normal conditions prior to induction of the pain models. A custom-made multi-channel system was used to record extracellularly from putative single-units in ventral posterolateral (VPL) thalamus and local field potential (LFP) in the primary somatosensory cortex (S1) hindlimb area (FIGS. 9A-9B). For a description of the FlexDrive system assembly see www.open-ephys.org/[…]. […] FlexDrives were fixed to the skull using C&B-METABOND® Quick! Adhesive (Parkell). After 3 days postoperatively, tetrodes were lowered incrementally ( 500 μm over 5-7 days) until auditory confirmation of typical neuronal responses as expected in VPL and SI (e.g., increased multiunit firing) evoked by light brushing of the left hindpaw. Tetrode positions were also corroborated by stereotaxic coordinates. […]

male Sprague-Dawley rats [2] = experiment: Thermal hyperalgesia, paw withdrawal latency (PWL) to radiant heat; format: in vivo, rat
male Sprague-Dawley rats [3] = tested on: male Sprague-Dawley rats
[4] = tested on: transgenic mice co-expressing VGAT with Channelrhodopsin-2; experiment: Mechanical paw withdrawal threshold to von Frey filaments after capsaicin; details: within 15-20 minutes after capsaicin injection, n=7 mice
Description: For acute and chronic pain models, capsaicin (0.1%, 10 μl, intradermal) was injected into the plantar aspect of the left hindpaw under sedation (1.5% isoflurane <2 min) to prevent stress due to restraining the hindpaw.
Mechanical sensitivity of the hindpaw was assessed by measuring the threshold of withdrawal in response to the application of calibrated von Frey filaments of different bending forces to the plantar aspect of the hindpaw according to the ‘up-down’ method, whereby filaments of different bending forces were pressed against the paw until buckling for a maximum of 3 seconds or a withdrawal reflex.

male Sprague-Dawley rats [5] = experiment: Cortical EEG coherence (3-30 Hz) between S1 and PFC electrodes; format: in vivo, rat
VPL neurons = experiment: Spontaneous burst firing of VPL thalamic neurons after capsaicin; format: in vivo, mouse; details: after capsaicin injection, n=17 units, 5 mice
Source text: A custom-made multi-channel system was used to record extracellularly from putative single-units in ventral posterolateral (VPL) thalamus and local field potential (LFP) in the primary somatosensory cortex (S1) hindlimb area (FIGS. 9A-9B). For a description of the FlexDrive system assembly see www.open-ephys.org/[…]. […] FlexDrives were fixed to the skull using C&B-METABOND® Quick! Adhesive (Parkell). After 3 days postoperatively, tetrodes were lowered incrementally ( 500 μm over 5-7 days) until auditory confirmation of typical neuronal responses as expected in VPL and SI (e.g., increased multiunit firing) evoked by light brushing of the left hindpaw. Tetrode positions were also corroborated by stereotaxic coordinates. […] Chronic implants were stable over several weeks, allowing longitudinal analysis of neuronal activity with behavioral testing of mechanical sensitivity. […] Sorted spikes were then screened visually and inspected for false-positive or overlapping unitary assignments. Only one electrode per tetrode was used for spike sorting to minimize redundant assignments from the same unit. […] Moreover, isolation of putative unitary spikes also met the criterion of inter-spike interval (ISI)>2 ms (refractory period). […]

[6] = 30 min after capsaicin, n=8 rats
[7] = rats with capsaicin, ibuprofen 30 mg/kg i.p.
[8] = rats with capsaicin, ibuprofen 30 mg/kg i.p. concomitantly with capsaicin, EEG 30 min after
[9] = rats with CCI, d14, 30 min after i.p. pregabalin
[10] = rats with CFA, d2, before / 30 min after i.p. pregabalin

## COc1cc(CNC(=O)CCCC/C=C/C(C)C)ccc1O [capsaicin]
[1]
  SI power in the theta band at 3.8-6.2 Hz: 8.15×10^−2±0.13×10^−2 mV^2
Male Sprague-Dawley rats [2]; [6]
  paw withdrawal latency (PWL): 6.00 ± 0.24 s
Male Sprague-Dawley rats [2]; 24 hour after capsaicin
  paw withdrawal latency (PWL): 9.15 ± 0.26 s
Male Sprague-Dawley rats [2]; [7]
  PWL (FIG. 4B): 64±3
Male Sprague-Dawley rats [3]; [6]
  PFC EEG mean power between 3 Hz to 30 Hz: 0.67±0.06 mV^2×10^−5
  cS1 EEG mean power between 3 Hz to 30 Hz: 1.05±0.11 mV^2×10^−5
  iS1 EEG mean power between 3 Hz to 30 Hz: 1.05±0.8 mV^2×10^−5
Male Sprague-Dawley rats [3]; 24 hours after capsaicin
  PFC EEG mean power between 3 Hz to 30 Hz: 0.65±0.07 mV^2×10^−5
  cS1 EEG mean power between 3 Hz to 30 Hz: 0.89±0.12 mV^2×10^−5
  iS1 EEG mean power between 3 Hz to 30 Hz: 0.90±0.18 mV^2×10^−5
Male Sprague-Dawley rats [3]; [8]
  PFC EEG mean power: 123±16
  cS1 EEG mean power (FIG. 4A): 128±17
  iS1 EEG mean power: 124±14
[4]
  paw withdrawal threshold (von Frey): 1.00 ± 0.37 g
Male Sprague-Dawley rats [5]; rats with capsaicin or CFA
  cS1-iS1 coherence: did not significantly effect
  iS1-PFC coherence: did not significantly effect
Male Sprague-Dawley rats [5]; rats with capsaicin, n=7 rats
  coherence between cS1 and PFC (mean 3-30 Hz coherence): 0.61±0.05
VPL neurons
  rate of spontaneous burst firing in VPL neurons: 0.64±0.11

## CC(C)C[C@H](CN)CC(=O)O [pregabalin]
Male Sprague-Dawley rats [2]; rats with CCI, after pregabalin
  PWL (FIG. 4B): 119±5
Male Sprague-Dawley rats [2]; rats with CFA, before / after pregabalin
  PWL (FIG. 4B): 132±17
Male Sprague-Dawley rats [3]; rat, in vivo
  adverse EEG signs (diffuse or paroxysmal slow activity associated with drowsiness): did not manifest adverse EEG signs
Male Sprague-Dawley rats [3]; [9]
  PFC EEG mean power: 133±14
  cS1 EEG mean power (FIG. 4A): 87±12
  iS1 EEG mean power: 151±20
Male Sprague-Dawley rats [3]; [10]
  PFC EEG mean power: 138±20
  cS1 EEG mean power (FIG. 4A): 209±35
  iS1 EEG mean power: 133±9
Male Sprague-Dawley rats [5]; rats with CCI d14, after pregabalin, n=5 rats
  coherence between cS1 and PFC (mean 3-30 Hz coherence): 0.61±0.03

## Cc1cccc(C)c1OCC(C)N (stereo not shown) [mexiletine]
Male Sprague-Dawley rats [2]; rats with CCI, after mexiletine 10 mg/kg i.p.
  PWL (FIG. 4B): 119±17
Male Sprague-Dawley rats [3]; rat, in vivo
  PFC EEG mean power: 113±6
  adverse EEG signs (diffuse or paroxysmal slow activity associated with drowsiness): did not manifest adverse EEG signs
  cS1 EEG mean power (FIG. 4A): 134±18
  iS1 EEG mean power: 13926
Male Sprague-Dawley rats [5]; rats with CCI d16, after mexiletine, n=5 rats
  coherence between cS1 and PFC (mean 3-30 Hz coherence): 0.50±0.10

## CC(C)Cc1ccc(C(C)C(=O)O)cc1 (stereo not shown) [ibuprofen]
Male Sprague-Dawley rats [2]; [7]
  PWL (FIG. 4B): 114±10
Male Sprague-Dawley rats [3]; [8]
  PFC EEG mean power: 117±18
  iS1 EEG mean power: 143±35
